# Data: US11766430B2, “Methods of using a phenoxypropylamine compound to treat pain” (Minerva Neurosciences, Inc., priority 2018, dated 2023)
# Where “and” joins values, the source holds several entries; their conditions need not be identical. Equal values may be shown once.
# Tested on: carrageenan-induced mechanical hyperalgesia in rats
# Assay: Carrageenan-induced mechanical hyperalgesia, paw pressure test, MIN-117 1-10 mg/kg (Example 4)
# Format: in vivo, male Sprague-Dawley rats
# Settings: Carrageenan 2%; for Nociceptive threshold, control paw (mean ± s.e.m.): T0 (3 h after carrageenan, before dosing); for paw withdrawal threshold, control paw, Mean: n = 10
# Protocol: In this model, inflammation is induced by intraplantar injection of carrageenan (2%) into the right hindpaw of the rat. Three hours later, reaction thresholds are measured using the paw pressure test. Pressure is gradually applied to both hind paws (inflamed and control) of the rat, and reaction thresholds are determined as the pressure (g) required to elicit paw withdrawal or vocalization. Morphine (3 mg/kg, s.c.), used as positive control.
# The experiments in this study used fifty (50) male Sprague-Dawley rats (SPF status, Janvier, France), each weighing 183-244 g during the experimental phase. The rats were housed in a temperature (20-24° C.) and relative humidity (45%-65%) controlled room and acclimated to an artificial day/night cycle of 12 hours light (6.30 a.m. to 6.30 p.m.)/12 hours darkness. Rats had free access to sterilized tap water and were fed ad libitum with pelleted complete diet (reference A04, S.A.F.E.). Animals were housed 4 per cage (cages Type E) and were acclimated for a period of at least 5 days before any testing. Each rat was identified by tail markings. Based on the SPF status of the animal facilities, there is no reason to expect that contaminants were present in the food, water or bedding, at levels capable of interfering with the results of the tests.
# Static mechanical hyperalgesia was assessed using the Paw Pressure test or Randall & Selitto test (Randall, L. O. and Selitto, J. J., A method for measurement of analgesic activity on inflamed tissue, Arch Int Pharmacodyn, 1957(111): 409-419). This test requires the application of an increasing pressure on the hind paws between a flat surface and a blunt pointer. This test is usually used with animals with one hind paw inflamed by an injection or injured by ligation, and one normal hind paw, to evaluate drugs for analgesic action. The apparatus exerts a steadily increasing force and reaction threshold is determined as the pressure (g) required to elicit paw withdrawal and/or vocalization. In the experiment, animals were gently handled by the experimenter and static mechanical hyperalgesia was assessed. Each reaction threshold measurement was done for both hind paws.
# Five (5) experimental groups of 10 rats each were used. Each group was first injected with 100 μL of a 2% carrageenan suspension was injected into the plantar aspect of the right hindpaw. Three hours after carrageenan injection, nociceptive reaction thresholds (vocalization or paw withdrawal) were measured in order to select animals meeting the inclusion criteria: 20 g<paw withdrawal threshold<240 g (baseline). The 5 groups were then administered the following: • Group 1: vehicle (0.5% HPMC), i.p., solution (negative control); • Group 2: MIN-117 (1 mg/kg, i.p.) in 0.5% HPMC, suspension; • Group 3: MIN-117 (3 mg/kg, i.p.) in 0.5% HPMC, suspension; • Group 4: MIN-117 (10 mg/kg, i.p.) in 0.5% HPMC, suspension; and • Group 5: morphine (3 mg/kg, s.c.) in 0.9% NaCl, solution (positive control).
# Thirty minutes after morphine injection, the antihyperalgesic effect of morphine was evaluated using the paw pressure test. For vehicle and MIN-117 administration, the antihyperalgesic effect was evaluated after 120 min. using the paw pressure test.
# Vehicle and MIN-117 were intraperitoneally administered at 10 mL/kg. Morphine was subcutaneously administered at 5 mL/kg. Dosing and testing were performed in a random order by a blinded experimenter except for the morphine-treated group. Doses were expressed in terms of free active substance.
# Results were expressed as: • The paw withdrawal threshold (mean±s.e.m.) in grams of contact pressure for each group, calculated from individual paw withdrawal thresholds • The percentage of variation of the paw withdrawal threshold calculated from the mean value of the vehicle-treated group • The percentage of activity of activity of the compound on carrageenan-induced mechanical hyperalgesia, calculated as follows: […]
# [1] = 1 mg/kg i.p., T0 (before dosing)
# [2] = 3 mg/kg i.p., T0 (before dosing)
# [3] = 10 mg/kg i.p., T0 (before dosing)
# [4] = MIN-117 1 mg/kg i.p. group, Baseline (before dosing)
# [5] = MIN-117 1 mg/kg i.p., 120 min after treatment, hydrochloride, 1 mg/kg
# [6] = MIN-117 3 mg/kg i.p. group, Baseline (before dosing)
# [7] = MIN-117 3 mg/kg i.p., 120 min after treatment, hydrochloride, 3 mg/kg
# [8] = MIN-117 10 mg/kg i.p. group, Baseline (before dosing)
# [9] = MIN-117 10 mg/kg i.p., 120 min after treatment, hydrochloride, 10 mg/kg
# [10] = 3 mg/kg s.c., T0 (before dosing)
# [11] = 3 mg/kg s.c., T0 + 30 min, 3 mg/kg
# [12] = 3 mg/kg s.c., T0 + 30 min, listed as morphine, 3 mg/kg
# [13] = Morphine 3 mg/kg s.c. group, Baseline (before dosing)
# [14] = Morphine 3 mg/kg s.c., 30 min after treatment
structure (smiles),measurement,setting,value
"Cc1nnc(-c2cc3c(OC[C@@H](O)CN4CCC(c5ccc(Cl)c(Cl)c5)CC4)cccc3o2)o1.Cl [MIN-117, (2S)-1-(4-(3,4-dichlorophenyl)piperidin-1-yl)-3-((2-(5-methyl-1,3,4-oxadiazol-2-yl)benzofuran-4-yl)oxy)propan-2-ol hydrochloride]",Effect on nociceptive threshold vs vehicle-treated group (in words),"1 mg/kg i.p., 120 min. after treatment",did not induce any significant increase
same,"Nociceptive threshold, control paw (mean ± s.e.m.)",1 mg/kg i.p.,402 ± 19.9 g
same,"% variation vs control paw, injured paw",[1],−50%
same,"% variation vs vehicle-treated group, injured paw",[1],1%
same,"Nociceptive threshold, injured paw (mean ± s.e.m.)",[1],202 ± 8.7 g
same,"% variation vs control paw, injured paw","1 mg/kg i.p., T0 + 120 min",−39%
same,"% variation vs pre-drug threshold, injured paw","1 mg/kg i.p., T0 + 120 min",14%
same,"% variation vs vehicle-treated group, injured paw","1 mg/kg i.p., T0 + 120 min",13%
same,"Nociceptive threshold, injured paw (mean ± s.e.m.)","1 mg/kg i.p., T0 + 120 min",230 ± 9.5 g
same,Effect on nociceptive threshold vs vehicle-treated group (in words),"3 mg/kg i.p., 120 min. later",significant increase
same,"Nociceptive threshold, control paw (mean ± s.e.m.)",3 mg/kg i.p.,392 ± 18.4 g
same,"% variation vs control paw, injured paw",[2],−47%
same,"% variation vs vehicle-treated group, injured paw",[2],4%
same,"Nociceptive threshold, injured paw (mean ± s.e.m.)",[2],208 ± 7.4 g
same,"% variation vs control paw, injured paw","3 mg/kg i.p., T0 + 120 min",−23%
same,"% variation vs pre-drug threshold, injured paw","3 mg/kg i.p., T0 + 120 min",42%
same,"% variation vs vehicle-treated group, injured paw","3 mg/kg i.p., T0 + 120 min",45%
same,"Nociceptive threshold, injured paw (mean ± s.e.m.)","3 mg/kg i.p., T0 + 120 min, hydrochloride, 3 mg/kg",296 ± 20.8 g
same,Effect on nociceptive threshold vs vehicle-treated group (in words),"10 mg/kg i.p., 120 min. later",significant increase
same,"Nociceptive threshold, control paw (mean ± s.e.m.)",10 mg/kg i.p.,384 ± 10.2 g
same,"% variation vs control paw, injured paw",[3],−47%
same,"% variation vs vehicle-treated group, injured paw",[3],2%
same,"Nociceptive threshold, injured paw (mean ± s.e.m.)",[3],204 ± 6.5 g
same,"% variation vs control paw, injured paw","10 mg/kg i.p., T0 + 120 min",−27%
same,"% variation vs pre-drug threshold, injured paw","10 mg/kg i.p., T0 + 120 min",53%
same,"% variation vs vehicle-treated group, injured paw","10 mg/kg i.p., T0 + 120 min",53%
same,"Nociceptive threshold, injured paw (mean ± s.e.m.)","10 mg/kg i.p., T0 + 120 min, hydrochloride, 10 mg/kg",312 ± 22.7 g
same,"% variation vs control paw, injured paw",[4],−50%
same,"% variation vs vehicle treated group, injured paw",[4],1%
same,"paw withdrawal threshold, control paw, Mean","MIN-117 1 mg/kg i.p. group, Baseline (before dosing, 3 h after carrageenan)",402 g
same,"% activity on carrageenan-induced mechanical hyperalgesia, injured paw","MIN-117 1 mg/kg i.p., 120 min",15%
same,"% variation vs control paw, injured paw","MIN-117 1 mg/kg i.p., 120 min",−39%
same,"% variation vs pre-drug threshold, injured paw","MIN-117 1 mg/kg i.p., 120 min",14%
same,"% variation vs vehicle treated group, injured paw","MIN-117 1 mg/kg i.p., 120 min",13%
same,"paw withdrawal threshold, control paw, individual rats",[5],400 g and 440 g and 340 g and 480 g and 360 g (4×) and 380 g and 320 g
same,"paw withdrawal threshold, injured paw, individual rats",[5],260 g (4×) and 220 g (2×) and 240 g and 200 g (2×) and 180 g
same,"paw withdrawal threshold, control paw, Mean","MIN-117 1 mg/kg i.p., 120 min after treatment",380 g
same,"% variation vs control paw, injured paw",[6],−47%
same,"% variation vs vehicle treated group, injured paw",[6],4%
same,"paw withdrawal threshold, control paw, Mean","MIN-117 3 mg/kg i.p. group, Baseline (before dosing, 3 h after carrageenan)",392 g
same,"% activity on carrageenan-induced mechanical hyperalgesia, injured paw","MIN-117 3 mg/kg i.p., 120 min",55%
same,"% variation vs control paw, injured paw","MIN-117 3 mg/kg i.p., 120 min",−23%
same,"% variation vs pre-drug threshold, injured paw","MIN-117 3 mg/kg i.p., 120 min",42%
same,"% variation vs vehicle treated group, injured paw","MIN-117 3 mg/kg i.p., 120 min",45%
same,"paw withdrawal threshold, control paw, individual rats",[7],380 g and 360 g (5×) and 440 g and 500 g and 320 g and 420 g
same,"paw withdrawal threshold, injured paw, individual rats",[7],360 g and 220 g and 420 g and 280 g (3×) and 340 g and 320 g and 260 g and 200 g
same,"paw withdrawal threshold, control paw, Mean","MIN-117 3 mg/kg i.p., 120 min after treatment",368 g
same,"% variation vs control paw, injured paw",[8],−47%
same,"% variation vs vehicle treated group, injured paw",[8],2%
same,"paw withdrawal threshold, control paw, Mean","MIN-117 10 mg/kg i.p. group, Baseline (before dosing, 3 h after carrageenan)",384 g
same,"% activity on carrageenan-induced mechanical hyperalgesia, injured paw","MIN-117 10 mg/kg i.p., 120 min",64%
same,"% variation vs control paw, injured paw","MIN-117 10 mg/kg i.p., 120 min",−27%
same,"% variation vs pre-drug threshold, injured paw","MIN-117 10 mg/kg i.p., 120 min",53%
same,"% variation vs vehicle treated group, injured paw","MIN-117 10 mg/kg i.p., 120 min",53%
same,"paw withdrawal threshold, control paw, individual rats",[9],440 g (3×) and 480 g and 520 g and 400 g and 340 g and 320 g and 360 g and 540 g
same,"paw withdrawal threshold, injured paw, individual rats",[9],320 g (2×) and 280 g (2×) and 340 g and 360 g and 480 g and 260 g and 240 g (2×)
same,"paw withdrawal threshold, control paw, Mean","MIN-117 10 mg/kg i.p., 120 min after treatment",428 g
"CN1CC[C@]23c4c5ccc(O)c4O[C@H]2[C@@H](O)C=C[C@H]3[C@H]1C5 [Morphine, reference compound]",Effect on nociceptive threshold vs baseline pre-treatment (in words),"3 mg/kg s.c., 30 min. after the injection",marked and significant increase
same,"Nociceptive threshold, control paw (mean ± s.e.m.)",3 mg/kg s.c.,376 ± 14.5 g
same,"% variation vs control paw, injured paw",[10],−47%
same,"% variation vs vehicle-treated group, injured paw",[10],0%
same,"Nociceptive threshold, injured paw (mean ± s.e.m.)","3 mg/kg s.c., T0 (before dosing), 3 mg/kg",200 ± 6.7 g
same,"Nociceptive threshold, injured paw (mean ± s.e.m.)","3 mg/kg s.c., T0 (before dosing), listed as morphine, 3 mg/kg",200 ± 6.7 g
same,"% variation vs control paw, injured paw","3 mg/kg s.c., T0 + 30 min",−17%
same,"% variation vs pre-drug threshold, injured paw","3 mg/kg s.c., T0 + 30 min",162%
same,"% activity, injured paw",[11],190%
same,"Nociceptive threshold, injured paw (mean ± s.e.m.)",[11],524 ± 35.6 g
same,"% activity, injured paw",[12],+190%
same,"Nociceptive threshold, injured paw (mean ± s.e.m.)",[12],524 ± 35.6 g
same,"% variation vs control paw, injured paw",[13],−47%
same,"% variation vs vehicle treated group, injured paw",[13],0%
same,"paw withdrawal threshold, control paw, Mean","Morphine 3 mg/kg s.c. group, Baseline (before dosing, 3 h after carrageenan)",376 g
same,"% activity on carrageenan-induced mechanical hyperalgesia, injured paw","Morphine 3 mg/kg s.c., 30 min",190%
same,"% variation vs control paw, injured paw","Morphine 3 mg/kg s.c., 30 min",−17%
same,"% variation vs pre-drug threshold, injured paw","Morphine 3 mg/kg s.c., 30 min",162%
same,"paw withdrawal threshold, control paw, individual rats",[14],680 g (4×) and 640 g (2×) and 600 g and 620 g and 560 g and 520 g
same,"paw withdrawal threshold, injured paw, individual rats",[14],680 g and 600 g (2×) and 500 g and 640 g and 320 g and 400 g and 540 g and 440 g and 520 g
same,"paw withdrawal threshold, control paw, Mean",[14],630 g
